The source made the active and inactive calls.
Columns and labels:
[1] = biological target: T1, RNA-binding protein pos-1 (Caenorhabditis elegans, UniProt G5EF15); assay: disruptors of C. elegans POS-1 RNA interaction – biochemical, fluorescence polarization, dose response (AID 1964);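 note: purified POS-1 fused to maltose binding protein made in E. coli; potency of compounds blocking POS-1 binding to fluorescent RNA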
T1 sequence (G5EF15 whole entry): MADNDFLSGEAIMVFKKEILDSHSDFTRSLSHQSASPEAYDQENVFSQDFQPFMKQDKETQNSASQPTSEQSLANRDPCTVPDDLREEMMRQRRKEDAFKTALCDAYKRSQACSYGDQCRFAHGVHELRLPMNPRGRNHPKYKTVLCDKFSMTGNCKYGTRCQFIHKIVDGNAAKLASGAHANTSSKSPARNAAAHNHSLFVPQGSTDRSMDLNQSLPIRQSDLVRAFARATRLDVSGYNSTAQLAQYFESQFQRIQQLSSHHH

[2] = Luminescence Cell-Based Dose Confirmation HTS to Identify Activators of 5'UTR Stem-Loop Driven Alpha-Synuclein mRNA Translation in H4 Neuroglioblastoma Cells. [Related pubchem assays: 1829 (Project Summary), 1814 (Primary HTS)]; format: functional
[3] = Luminescence Cell-Based Dose Response HTS to Identify Activators of Luciferase Translation or Activity in H4 […] Cells. [Related pubchem assays: 1829 (Project Summary), 1814 (Primary HTS)]; format: functional
H4 = assay: Luminescence Cell-Based Dose Response HTS to Identify Activators of 5'UTR Stem-Loop Driven Prion Protein mRNA Translation in H4 Neuroglioblastoma Cells. [Related pubchem assays: 1829 (Project Summary), 1814 (Primary HTS)]; format: functional; conditions: Homo sapiens
[4] = biological target: T2, Zinc finger protein mex-5 (Caenorhabditis elegans, UniProt Q9XUB2); assay: potency of MEX-5 RNA-binding blockers – biochemical, C. elegans, fluorescence polarization, dose response (AID 1960)
T2 sequence (Q9XUB2 whole entry): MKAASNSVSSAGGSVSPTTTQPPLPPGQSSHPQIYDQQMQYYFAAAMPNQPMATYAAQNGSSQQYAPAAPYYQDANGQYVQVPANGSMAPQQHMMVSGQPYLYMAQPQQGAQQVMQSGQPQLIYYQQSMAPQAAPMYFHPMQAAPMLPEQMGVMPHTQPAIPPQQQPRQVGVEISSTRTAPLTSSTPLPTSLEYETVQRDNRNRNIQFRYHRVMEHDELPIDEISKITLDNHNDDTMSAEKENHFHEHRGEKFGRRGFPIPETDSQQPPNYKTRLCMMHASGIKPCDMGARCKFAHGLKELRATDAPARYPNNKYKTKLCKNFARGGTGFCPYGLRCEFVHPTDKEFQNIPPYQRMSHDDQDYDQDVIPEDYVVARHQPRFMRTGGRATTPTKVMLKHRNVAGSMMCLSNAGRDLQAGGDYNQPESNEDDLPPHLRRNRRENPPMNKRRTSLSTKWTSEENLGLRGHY

[5] = biological target: Heat shock protein HSP 90-alpha (Homo sapiens, UniProt P07900); assay: Luminescence-based dose response biochemical high throughput screening assay for inhibitors of the Heat Shock Protein 90 (HSP90). [Related pubchem assays: 1831 (Summary AID.), 1846 (Confirmation screen.), 1789 (Primary screen.)]
[6] = biological target: T3, Corticotropin-releasing factor receptor 2/Corticotropin-releasing factor-binding protein (Homo sapiens, UniProt P24387+Q13324); assay: activators of CRF receptor 2 with binding protein – uHTS hits, confirmation (AID 602473); format: functional; conditions: read-out: EC50_Mean
T3 sequence (Q13324 whole entry): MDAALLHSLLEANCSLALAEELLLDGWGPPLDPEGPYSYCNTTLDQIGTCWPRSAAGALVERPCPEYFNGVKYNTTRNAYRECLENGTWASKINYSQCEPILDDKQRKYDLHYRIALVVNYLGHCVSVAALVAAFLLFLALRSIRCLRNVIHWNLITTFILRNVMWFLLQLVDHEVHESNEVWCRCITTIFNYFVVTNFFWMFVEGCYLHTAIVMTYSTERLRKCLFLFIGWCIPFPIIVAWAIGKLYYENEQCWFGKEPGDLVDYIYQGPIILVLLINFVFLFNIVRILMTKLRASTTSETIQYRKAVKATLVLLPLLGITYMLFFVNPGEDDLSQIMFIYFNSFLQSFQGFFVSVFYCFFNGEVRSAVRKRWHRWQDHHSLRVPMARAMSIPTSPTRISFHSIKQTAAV
T3 sequence (P24387 whole entry): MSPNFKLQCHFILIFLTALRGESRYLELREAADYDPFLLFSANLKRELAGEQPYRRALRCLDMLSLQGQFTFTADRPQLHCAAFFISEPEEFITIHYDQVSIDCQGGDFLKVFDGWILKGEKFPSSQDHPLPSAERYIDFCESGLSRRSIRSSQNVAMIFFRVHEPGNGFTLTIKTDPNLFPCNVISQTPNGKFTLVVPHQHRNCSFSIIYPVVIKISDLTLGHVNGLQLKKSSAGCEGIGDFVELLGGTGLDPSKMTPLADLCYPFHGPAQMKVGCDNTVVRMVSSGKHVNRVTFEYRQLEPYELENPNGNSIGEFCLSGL

HEK293 [7] = assay: PMA/Ionomycin induced NF-kB luciferase assay in 293- NF-kB-Luc stable cells. [Related pubchem assays: 1299, 1270, 1295, 1375, 1287, 1281, 1293, 1291, 1289, 1280, 465, 1364, 1282, 1372, 1365, 1370, 1367, 1366, 1269, 1373, 1292, 1290, 1302, 1371, 1283, 1271, 1294, 1374, 1368, 1369 ]; format: functional, cell-based; conditions: Homo sapiens
[8] = biological target: Luciferin 4-monooxygenase (Photinus pyralis, UniProt P08659); assay: In vitro luciferase assay using purified luciferase. [Related pubchem assays: 1299, 1270, 1295, 1375, 1287, 1281, 1293, 1291, 1289, 1280, 465, 1364, 1282, 1372, 1365, 1370, 1367, 1366, 1266, 1373, 1292, 1290, 1302, 1371, 1283, 1271, 1294, 1374, 1368, 1369 ]
Luciferin 4-monooxygenase, sequence (P08659 whole entry): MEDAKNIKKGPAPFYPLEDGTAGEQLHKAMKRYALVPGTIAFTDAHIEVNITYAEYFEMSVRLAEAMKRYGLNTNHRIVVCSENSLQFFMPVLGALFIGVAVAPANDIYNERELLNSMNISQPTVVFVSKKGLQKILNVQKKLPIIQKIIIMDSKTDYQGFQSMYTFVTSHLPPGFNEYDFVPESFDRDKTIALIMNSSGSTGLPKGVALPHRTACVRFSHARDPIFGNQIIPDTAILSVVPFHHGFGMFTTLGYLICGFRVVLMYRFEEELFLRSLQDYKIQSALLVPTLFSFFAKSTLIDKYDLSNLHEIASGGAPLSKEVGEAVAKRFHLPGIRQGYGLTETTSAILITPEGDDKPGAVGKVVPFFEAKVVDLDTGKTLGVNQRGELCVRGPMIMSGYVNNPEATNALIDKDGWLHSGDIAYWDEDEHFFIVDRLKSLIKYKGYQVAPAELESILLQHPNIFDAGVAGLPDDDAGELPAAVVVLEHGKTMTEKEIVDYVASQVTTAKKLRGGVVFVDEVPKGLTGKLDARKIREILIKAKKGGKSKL

HEK293 [9] = assay: Cytotoxicity assay in HEK293 cells. [Related pubchem assays (depositor defined):AID1266, AID1269, AID1270, AID1271, AID1280, AID1281, AID1282, AID1283, AID1287, AID1289, AID1290, AID1291, AID1292, AID1293, AID1294, AID1295, AID1299, AID1302, AID1364, AID1365, AID1366, AID1367, AID1369, AID1370, AID1371, AID1372, AID1373, AID1374, AID1375, AID1384 …; format: functional, cell-based; conditions: Homo sapiens
HEK293 [10] = assay: TNF Induced NF-kB Luciferase in 293-NF-kB-Luc Stable Cells. [Related pubchem assays: 1266, 1299, 1269, 1373, 1292, 1290, 1302, 1371, 1283, 1270, 1295, 1271, 1375, 1294, 1374, 1281, 1293, 1291, 1289, 1280, 465, 1368, 1364, 1282, 1372, 1365, 1369, 1370, 1367, 1366 ]; format: functional, cell-based; conditions: Homo sapiens
[11] = viability loss in Vero cells – cytotoxicity control for Vif-APOBEC3G degradation inhibitor project, dose response (AID 1117358); format: functional; conditions: Vero
Protein skinhead-1 = biological target: T4, Protein skinhead-1 (Caenorhabditis elegans, UniProt P34707); format: functional
T4 sequence (P34707 whole entry): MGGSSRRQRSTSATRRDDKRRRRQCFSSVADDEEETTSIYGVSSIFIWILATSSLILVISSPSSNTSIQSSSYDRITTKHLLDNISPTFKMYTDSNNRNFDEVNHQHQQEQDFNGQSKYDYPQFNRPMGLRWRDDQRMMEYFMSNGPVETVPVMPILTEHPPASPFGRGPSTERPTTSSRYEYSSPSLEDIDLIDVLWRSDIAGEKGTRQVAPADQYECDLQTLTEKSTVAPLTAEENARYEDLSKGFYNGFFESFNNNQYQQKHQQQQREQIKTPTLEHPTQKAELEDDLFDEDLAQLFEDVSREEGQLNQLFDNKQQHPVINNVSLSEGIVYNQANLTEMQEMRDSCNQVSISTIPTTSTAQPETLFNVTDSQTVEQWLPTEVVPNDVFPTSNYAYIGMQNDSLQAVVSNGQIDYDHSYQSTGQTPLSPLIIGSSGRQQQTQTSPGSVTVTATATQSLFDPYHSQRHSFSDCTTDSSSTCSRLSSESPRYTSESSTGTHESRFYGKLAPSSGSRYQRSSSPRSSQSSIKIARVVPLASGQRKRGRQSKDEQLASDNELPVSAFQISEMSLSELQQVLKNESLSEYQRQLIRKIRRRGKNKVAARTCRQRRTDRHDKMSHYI

[12] = SELE mRNA upregulation in endothelial cells – cell-based, HUVEC, RT-qPCR, dry powder, orthogonal assay for E-selectin inducer project, confirmation (AID 1117270); format: functional

## Cc1ccc2oc(=O)c(/C=C(\O)c3cccs3)nc2c1
[1]
  EC50: 21.3 µM (inconclusive)
[2]
  EC50: 16.6 µM (active)
[3]
  EC50: 13.1 µM (active)
H4
  EC50: 16.5 µM (active)
[4]
  EC50: 6.82 µM (inconclusive)
[5]
  IC50: 5.05 µM (active)
[6]
  EC50: 4.87 µM (active)

## Cc1ccc2[nH]c(=O)c(C(=O)/C=C/c3ccccc3Cl)c(-c3ccccc3)c2c1
HEK293 [7]
  EC50: 1.17 µM (active)
[8]
  EC50: > 8 µM (not active)
HEK293 [9]
  EC50: 5.72 µM (inactive)
HEK293 [10]
  EC50: 2.6 µM (active)

## COc1cc2c(cc1NC(=O)CC1SC(N3CCCC3)=NC1=O)oc1ccccc12 (centres undefined)
[11]
  CC50: > 40 µM (active)

## Cc1cccc(NC(=O)NCc2ccc3c(c2)cc(C)n3C)c1
Protein skinhead-1
  IC50: > 100 µM (inactive)
[12]
  AC50: 0.306 µM (active)
